Reference: patent US11160870B2, “Extended release microparticles and suspensions thereof for medical therapy” (Graybug Vision, Inc., priority 2017, dated 2021)

System: eye
Experiment: Acute non-GLP IVT ocular tolerability and toxicity study of sunitinib malate (free drug)
Format: in vivo, pigmented rabbits
Conditions: single bilateral IVT injection, up to 7 days
Protocol: An acute, non-GLP IVT study was conducted to evaluate the ocular tolerability and toxicity of sunitinib malate (free drug) for up to 7 days following a single IVT injection. Sunitinib malate was formulated in phosphate buffered saline and injected bilaterally (0.1 mL) at 0.125 or 1.25 mg per eye.

For `CCN(CC)CCNC(=O)c1c(C)[nH]c(/C=C2\C(=O)Nc3ccc(F)cc32)c1C` [sunitinib malate], the “no-observed-adverse-effect-level (NOAEL) dose” value was 0.125 mg/eye.
